Where “and” joins values, the source holds several entries; their conditions need not be identical. Identical values can stand only once. Toxic doses and inconclusive results are not listed. Cut-off read from the data, not from the text of the source: active = T/C of 150% or more; inactive = T/C below 125%.
System: L1210 leukemia ip in BDF1 mice, survival T/C
Test: NCI In Vivo Anticancer Drug Screen. Data for tumor model L1210 Leukemia (intraperitoneal) in B6D2F1 (BDF1) mice
Details: endpoint: mean survival time, higher = longer survival
Procedure, shortened: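 Tumor was transplanted into mice, which were then dosed with test compound or vehicle alone. Survival was recorded for each group, and the treated figure was expressed relative to the control figure.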

[1] = dose: 100.0 mg/kg/injection, schedule: Q01DX009 (ip), vehicle: Klucel (hydroxypropylcellulose) (HPC)
[2] = dose: 200.0 mg/kg/injection, schedule: Q01DX009 (ip), vehicle: Klucel (hydroxypropylcellulose) (HPC)
[3] = dose: 400.0 mg/kg/injection, schedule: Q01DX009 (ip), vehicle: Klucel (hydroxypropylcellulose) (HPC)
[4] = dose: 100.0 mg/kg/injection, schedule: Q01DX001 (ip), vehicle: saline
[5] = dose: 200.0 mg/kg/injection, schedule: Q01DX001 (ip), vehicle: saline
[6] = dose: 400.0 mg/kg/injection, schedule: Q01DX001 (ip), vehicle: saline
[7] = dose: 400.0 mg/kg/injection, schedule: Q04DX003 (ip), vehicle: Klucel (hydroxypropylcellulose) (HPC)
[8] = dose: 100.0 mg/kg/injection, schedule: Q04DX003 (ip), vehicle: Klucel (hydroxypropylcellulose) (HPC)
[9] = dose: 200.0 mg/kg/injection, schedule: Q04DX003 (ip), vehicle: Klucel (hydroxypropylcellulose) (HPC)
[10] = dose: 100.0 mg/kg/injection, schedule: Q01DX001 (ip), vehicle: saline with Tween-80
[11] = dose: 100.0 mg/kg/injection, schedule: Q04DX003 (ip), vehicle: saline with Tween-80
[12] = dose: 200.0 mg/kg/injection, schedule: Q01DX001 (ip), vehicle: saline with Tween-80
[13] = dose: 200.0 mg/kg/injection, schedule: Q04DX003 (ip), vehicle: saline with Tween-80
[14] = dose: 400.0 mg/kg/injection, schedule: Q01DX001 (ip), vehicle: saline with Tween-80
[15] = dose: 400.0 mg/kg/injection, schedule: Q04DX003 (ip), vehicle: saline with Tween-80
[16] = dose: 50.0 mg/kg/injection, schedule: Q01DX009 (ip), vehicle: saline
[17] = dose: 100.0 mg/kg/injection, schedule: Q01DX009 (ip), vehicle: saline
[18] = dose: 100.0 mg/kg/injection, schedule: Q04DX003 (ip), vehicle: saline
[19] = dose: 200.0 mg/kg/injection, schedule: Q01DX009 (ip), vehicle: saline
[20] = dose: 200.0 mg/kg/injection, schedule: Q04DX003 (ip), vehicle: saline
[21] = dose: 25.0 mg/kg/injection, schedule: Q01DX009 (ip), vehicle: saline with Tween-80
[22] = dose: 50.0 mg/kg/injection, schedule: Q01DX009 (ip), vehicle: saline with Tween-80
[23] = dose: 50.0 mg/kg/injection, schedule: Q04DX003 (ip), vehicle: saline with Tween-80

Measured: T/C

Cc1cccc(OC(=O)Nc2cccc3ccccc23)c1
inactive: [1] 93 % of control | [2] 87 % of control | [3] 96 % of control

O=c1[nH]cc[nH]1
inactive: [4] 100 % of control | dose: 178.0 mg/kg/injection, schedule: Q01DX009 (ip), vehicle: saline 109 % of control | [5] 105 % of control | dose: 267.0 mg/kg/injection, schedule: Q01DX009 (ip), vehicle: Klucel (hydroxypropylcellulose) (HPC) 106 % of control | dose: 267.0 mg/kg/injection, schedule: Q01DX009 (ip), vehicle: saline 119 % of control | dose: 267.0 mg/kg/injection, schedule: Q04DX003 (ip), vehicle: Klucel (hydroxypropylcellulose) (HPC) 105 % of control | [6] 109 % of control | [3] 117 % of control | [7] 104 % of control | dose: 600.0 mg/kg/injection, schedule: Q04DX003 (ip), vehicle: Klucel (hydroxypropylcellulose) (HPC) 109 % of control

O=C1CCC(=O)N1c1ccc([I+]c2ccc(N3C(=O)CCC3=O)cc2)cc1
inactive: dose: 50.0 mg/kg/injection, schedule: Q01DX001 (ip), vehicle: saline 103 % of control | [4] 103 % of control | [5] 105 % of control | [6] 103 % of control

O=C(Nc1ccc(N=Nc2ccccc2)cc1)C(F)(F)F
inactive: [4] 102 % of control | [5] 109 % of control | [6] 93 % of control

CCCCCC(Oc1ccc(Cl)cc1)C(=O)O (stereo unspecified)
inactive: [8] 104 % of control | [9] 98 % of control

N#Cc1cccc2c(/C=N\NC(N)=S)nccc12
inactive: dose: 100.0 mg/kg/injection, schedule: Q04DX002 (ip), vehicle: Klucel (hydroxypropylcellulose) (HPC) 106 % of control | dose: 200.0 mg/kg/injection, schedule: Q04DX002 (ip), vehicle: Klucel (hydroxypropylcellulose) (HPC) 95 % of control | dose: 400.0 mg/kg/injection, schedule: Q04DX002 (ip), vehicle: Klucel (hydroxypropylcellulose) (HPC) 87 % of control

CC1C(=O)C2CCCCC2C1=O (stereo unspecified)
inactive: [4] 96 % of control | [5] 96 % of control | [6] 100 % of control

c1ccc(C2(C3(c4ccccc4)SCCCS3)CN2)cc1 (stereo unspecified)
inactive: dose: 100.0 mg/kg/injection, schedule: Q01DX001 (ip), vehicle: Klucel (hydroxypropylcellulose) (HPC) 101 % of control | dose: 200.0 mg/kg/injection, schedule: Q01DX001 (ip), vehicle: Klucel (hydroxypropylcellulose) (HPC) 97 % of control

CCOC(=O)C1(C2=NC(C)(C)CC(C)O2)CCCCC1 (stereo unspecified)
inactive: dose: 100.0 mg/kg/injection, schedule: Q01DX009 (ip), vehicle: other 102 % of control | dose: 200.0 mg/kg/injection, schedule: Q01DX009 (ip), vehicle: other 100 % of control | dose: 400.0 mg/kg/injection, schedule: Q01DX009 (ip), vehicle: other 107 % of control

CSc1ncnc2c1ncn2-n1c(C)ccc1C
inactive: [10] 89 % of control | [11] 96 % of control | [12] 90 % of control | [13] 94 % of control | [14] 93 % of control | [15] 93 % of control

C1=C(N2CCOCC2)CCC(N2CCOCC2)=C1
inactive: [16] 108 % of control | [17] 95 % of control | [18] 98 % of control | [19] 95 % of control | [20] 95 % of control

COc1cc([N+](=O)[O-])cc2c1OC1(C=C2)N(C)c2ccccc2C1(C)C (stereo unspecified)
inactive: dose: 25.0 mg/kg/injection, schedule: Q04DX002 (ip), vehicle: gum acacia 111 % of control | dose: 50.0 mg/kg/injection, schedule: Q04DX002 (ip), vehicle: gum acacia 97 % of control and 100 % of control | dose: 100.0 mg/kg/injection, schedule: Q04DX002 (ip), vehicle: gum acacia 100 % of control | dose: 200.0 mg/kg/injection, schedule: Q04DX002 (ip), vehicle: gum acacia 108 % of control

c1ccc(Cn2ccc3ccncc32)cc1
inactive: dose: 75.0 mg/kg/injection, schedule: Q01DX001 (ip), vehicle: other 96 % of control

CCN(CC)CCOc1cccc(Oc2ccccc2)c1
inactive: [16] 96 % of control | [17] 117 % of control | [18] 98 % of control

O=P(NCCCO)(OCc1ccccc1)N(CCCl)CCCl (stereo unspecified)
inactive: dose: 62.5 mg/kg/injection, schedule: Q01DX010 (ip), vehicle: saline 87 % of control | dose: 125.0 mg/kg/injection, schedule: Q01DX010 (ip), vehicle: saline 98 % of control | dose: 250.0 mg/kg/injection, schedule: Q01DX010 (ip), vehicle: saline 90 % of control | dose: 250.0 mg/kg/injection, schedule: Q01DX Z (ip), vehicle: saline 95 % of control | dose: 500.0 mg/kg/injection, schedule: Q01DX Z (ip), vehicle: saline 95 % of control | dose: 750.0 mg/kg/injection, schedule: Q01DX Z (ip), vehicle: saline 118 % of control

COc1cccc(NC(=O)CCC(=O)O)c1
inactive: [21] 105 % of control | [22] 100 % of control | [23] 98 % of control | [11] 103 % of control | dose: 200.0 mg/kg/injection, schedule: Q01DX009 (ip), vehicle: saline with Tween-80 88 % of control | [13] 97 % of control | dose: 400.0 mg/kg/injection, schedule: Q01DX009 (ip), vehicle: saline with Tween-80 95 % of control | [15] 103 % of control

Cc1ccc(S(=O)(=O)NCCC(Cl)(Cl)Cl)cc1
inactive: [8] 104 % of control | [9] 101 % of control | [7] 98 % of control

CCN(CC)CCOC(=O)c1cccnc1
inactive: dose: 25.0 mg/kg/injection, schedule: Q01DX009 (ip), vehicle: saline 96 % of control | dose: 25.0 mg/kg/injection, schedule: Q04DX003 (ip), vehicle: saline 103 % of control | [16] 94 % of control | dose: 50.0 mg/kg/injection, schedule: Q04DX003 (ip), vehicle: saline 97 % of control | [17] 100 % of control | [18] 97 % of control | [19] 86 % of control | [20] 95 % of control | dose: 400.0 mg/kg/injection, schedule: Q01DX009 (ip), vehicle: saline 107 % of control | dose: 400.0 mg/kg/injection, schedule: Q04DX003 (ip), vehicle: saline 101 % of control

CC(=O)O[C@@H]1[C@H]2O[C@H]2[C@H]2O[C@@]2(COC(=O)c2ccccc2)[C@H]1OC(C)=O
inactive: dose: 100.0 mg/kg/injection, schedule: Q01DX015 (ip), vehicle: carboxymethylcellulose (CMC) 108 % of control | dose: 200.0 mg/kg/injection, schedule: Q01DX015 (ip), vehicle: carboxymethylcellulose (CMC) 107 % of control | dose: 400.0 mg/kg/injection, schedule: Q01DX015 (ip), vehicle: carboxymethylcellulose (CMC) 90 % of control

CC1NC(=O)OC12CCCCC2 (stereo unspecified)
inactive: [10] 96 % of control | [12] 92 % of control | [14] 92 % of control

CSc1ccc(NC(=O)Nc2ccc(F)cc2)cc1
inactive: [1] 96 % of control | [2] 97 % of control

CNS(=O)(=O)c1ccccc1CC(O)(c1ccccc1)c1ccccc1
inactive: dose: 100.0 mg/kg/injection, schedule: Q01DX001 (ip), vehicle: steriod suspending solution 88 % of control | dose: 200.0 mg/kg/injection, schedule: Q01DX001 (ip), vehicle: steriod suspending solution 87 % of control

CCOC(=O)c1cc(=O)c2cc(S(=O)(=O)F)ccc2[nH]1
inactive: [1] 95 % of control | [2] 97 % of control | [3] 97 % of control

CCC1(CC)C(=O)C=CNC1=O
inactive: [23] 95 % of control | [11] 107 % of control | [13] 102 % of control

CCOc1ccnc(OCC)n1
inactive: [21] 86 % of control | dose: 25.0 mg/kg/injection, schedule: Q04DX003 (ip), vehicle: saline with Tween-80 95 % of control | [22] 100 % of control | [23] 97 % of control | dose: 100.0 mg/kg/injection, schedule: Q01DX009 (ip), vehicle: saline with Tween-80 91 % of control | [11] 106 % of control
